Measured values: patent US5858684A, “Method of screening calcium receptor-active molecules” (priority 1995, dated 1999)
Like-named read-outs stand apart in the source and are kept apart here. Values belong to the compound of their own block, whether it stands above or below them.

How the values were obtained:
[1] = molecular target: T1, calcium receptor expressed from bovine parathyroid cell mRNA in Xenopus oocytes (Bos taurus, UniProt P35384); test: Cl- current in Xenopus oocytes injected with bovine parathyroid mRNA; format: cell-based; settings: 30 μM
T1 sequence (P35384 20-1085): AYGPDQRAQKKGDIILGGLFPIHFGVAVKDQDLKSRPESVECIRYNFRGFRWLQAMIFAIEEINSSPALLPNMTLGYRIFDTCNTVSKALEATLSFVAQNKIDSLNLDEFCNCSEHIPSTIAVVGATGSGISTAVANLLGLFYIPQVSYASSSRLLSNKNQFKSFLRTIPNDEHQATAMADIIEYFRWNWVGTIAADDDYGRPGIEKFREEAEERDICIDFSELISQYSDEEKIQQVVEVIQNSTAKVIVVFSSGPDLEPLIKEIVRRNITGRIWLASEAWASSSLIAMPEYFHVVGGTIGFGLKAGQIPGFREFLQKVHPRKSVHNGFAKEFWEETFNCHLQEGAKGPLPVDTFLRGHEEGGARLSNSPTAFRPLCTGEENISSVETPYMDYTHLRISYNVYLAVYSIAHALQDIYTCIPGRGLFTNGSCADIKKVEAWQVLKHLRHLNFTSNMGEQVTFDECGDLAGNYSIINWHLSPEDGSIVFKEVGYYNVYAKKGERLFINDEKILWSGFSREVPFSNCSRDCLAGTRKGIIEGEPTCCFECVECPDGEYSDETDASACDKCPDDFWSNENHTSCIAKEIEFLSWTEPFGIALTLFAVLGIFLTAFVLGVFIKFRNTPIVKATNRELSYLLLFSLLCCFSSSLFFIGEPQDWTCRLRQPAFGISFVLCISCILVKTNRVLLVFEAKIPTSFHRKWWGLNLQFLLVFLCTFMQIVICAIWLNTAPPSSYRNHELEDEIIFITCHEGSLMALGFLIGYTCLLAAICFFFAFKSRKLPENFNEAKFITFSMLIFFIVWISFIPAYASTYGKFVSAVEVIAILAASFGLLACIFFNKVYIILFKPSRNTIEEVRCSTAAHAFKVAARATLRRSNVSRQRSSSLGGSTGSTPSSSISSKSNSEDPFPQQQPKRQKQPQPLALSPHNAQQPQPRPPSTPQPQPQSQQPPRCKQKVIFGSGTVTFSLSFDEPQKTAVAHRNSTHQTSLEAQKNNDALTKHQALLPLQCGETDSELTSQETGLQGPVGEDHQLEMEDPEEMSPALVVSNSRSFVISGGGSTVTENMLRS
Experimental: Glass capillary tubes (1 mm diameter) were pulled to a fine tip and manually broken to achieve a tip diameter of about 15 μmeters. A droplet of mRNA (1 ng/nl in diethylpyrocarbonate (DEPC)-treated water) was placed onto […]® and drawn into the capillary tube by suction. The capillary tube was then connected to a picospritzer (WPI Instruments) and the volume of the air-pulsed droplets adjusted to deliver 50 ng of mRNA (typically 50 nl). A 35-mm culture dish with a patch of nylon stocking fixed to the bottom was used to secure the oocytes during injection of mRNA into the vegetal pole. The injected oocytes were placed into a 35-mm culture dish containing MBS, 100 μg/ml penicillin and 100 μg/ml streptomycin and incubated at 18° C. for 3 days.
Following incubation, an oocyte was placed into a 100-μl plastic chamber and superfused with MBS at a flow rate of 0.5 ml/min using a peristaltic pump. Test molecules or inorganic polycations were added by rapidly moving the tubing into different buffers. Recording and current-passing electrodes were constructed from thin-wall capillary tubing pulled to a resistance of 1-3 Mohms and filled with 3M KCl. […] Currents were recorded directly onto a strip chart recorder.

[2] = plasma calcitonin in rats; format: in vivo, rat; settings: p.o.
[3] = hypocalcemic response in thyroidectomized rats; format: in vivo, rat; settings: 3 to 100 mg/kg p.o.
From the text: In subsequent studies, rats received a thyroidectomy (parathyroid glands intact). This surgical procedure effectively removed the C-cells secreting calcitonin and therefore enabled the relative contributions of PTH and calcitonin to the hypocalcemic effect of this compound to be determined. […] The only difference was that the rate of onset of the hypocalcemic response was somewhat delayed in thyroidectomized animals. […] Stimulatory effects of this compound on calcitonin secretion increases the rate of onset, but not the extent, of hypocalcemia.

[4] = serum parathyroid hormone in a human; format: in vivo; settings: single oral doses 20-400 mg
From the text: (§1) A range of single oral doses was used to assess safety, tolerance, and changes in primary hyperparathyroidism markers (e.g., plasma concentrations of parathyroid hormone and ionized serum calcium) and of serum calcitonin.

[5] = serum ionized calcium in a human; format: in vivo; settings: higher oral doses
From the text: as §1

[6] = system: osteoclast calcium receptor; test: increase in [Ca2+]i in indo-1-loaded rat osteoclasts; format: cell-based
[7] = system: increases in [Ca2+]i elicited by extracellular Ca2+ in bovine parathyroid cells; test: block of extracellular Ca2+-induced [Ca2+]i increase / Ca2+ influx in bovine parathyroid cells; format: cell-based; settings: 30 μM

Cl- current [1]: rapid increase in Cl^-
SMILES: COc1cccc([C@@H](C)NCCCc2ccccc2)c1 (single isomer, unassigned) [NPS R-467]

SMILES: COc1cccc([C@@H](C)NCCCc2ccccc2Cl)c1 [NPS R-568, (R)-(+)-N-[3-(2-chlorophenyl)propyl]-amethyl-α-3-methoxybenzylamine]
plasma calcitonin [2]: an increase in calcitonin
hypocalcemic response in thyroidectomized vs sham-operated animals [3]: equal in magnitude to that produced in sham-operated animals
plasma PTH in human [4]: transient dose-dependent decrease in plasma PTH concentration
serum ionized calcium in human [5]: decrease in serum ionized calcium concentration

SMILES: NC[C@@H]1O[C@H](O[C@H]2[C@@H](O)[C@H](O[C@@H]3[C@@H](O)[C@H](N)C[C@H](N)[C@H]3O[C@H]3O[C@H](CN)[C@@H](O)[C@H](O)[C@H]3N)O[C@@H]2CO)[C@H](N)[C@@H](O)[C@@H]1O [Neomycin]
block of [Ca2+]i response to 25 mM extracellular Ca2+ [6]: did not block the increase
increase in [Ca2+]i in osteoclasts [6]: failed to evoke any increase
increase in [Ca2+]i in osteoclasts, overall [6]: none of these caused any large increase
increase in [Ca2+]i in rat osteoclasts [6]: Neither
effect on basal [Ca2+]i and on extracellular Ca2+-elicited increase ([6]; 5 mM): without effect on basal
increase in [Ca2+]i in osteoclasts, overall ([6]; listed as neomycin B): fail to evoke increases
effect on [Ca2+]i increases elicited by extracellular Ca2+ [7]: blocks transient, but does not block steady-state increases
